Measured values published in patent US10131652B2, “Pyrimidinyloxy benzene derivatives as herbicides” (E. I. DU PONT DE NEMOURS AND COMPANY, priority 2014, dated 2018).
Like-named read-outs stand apart in the source and are kept apart here.

Assays:
Assay in all cases: Test E pre-/postemergence plant response
Format in all cases: in vivo
[1] = tested on: bluegrass (annual bluegrass, Poa annua); conditions: scale 0 to 100, read-out: Plant response rating, Bluegrass; for pest or weed control at 16 g/ha: 16 g ai/ha; for pest or weed control at 31 g/ha: 31 g ai/ha; for pest or weed control at 62 g/ha: 62 g ai/ha; for pest or weed control at 125 g/ha: 125 g ai/ha
In short: (§1)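 Pre-emergence: seeds sown in silt loam soil and sprayed with test chemicals in a non-phytotoxic solvent/surfactant mix. Post-emergence: plants at 2–18 cm (1- to 4-leaf stage) in peat/vermiculite medium treated with the same formulation. Visual rating versus controls after 7–21 days, 0 (no effect) to 100 (complete control).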

[2] = tested on: deadnettle (henbit deadnettle, Lamium amplexicaule); conditions: scale 0 to 100, read-out: Plant response rating, Deadnettle; for pest or weed control at 16 g/ha: 16 g ai/ha; for pest or weed control at 31 g/ha: 31 g ai/ha; for pest or weed control at 62 g/ha: 62 g ai/ha; for pest or weed control at 125 g/ha: 125 g ai/ha
In short: as §1

[3] = tested on: field violet (Viola arvensis); conditions: scale 0 to 100, read-out: Plant response rating, Field Violet; for pest or weed control at 16 g/ha: 16 g ai/ha; for pest or weed control at 31 g/ha: 31 g ai/ha; for pest or weed control at 62 g/ha: 62 g ai/ha; for pest or weed control at 125 g/ha: 125 g ai/ha
In short: as §1

[4] = tested on: galium (catchweed bedstraw, Galium aparine); conditions: scale 0 to 100, read-out: Plant response rating, Galium; for pest or weed control at 16 g/ha: 16 g ai/ha; for pest or weed control at 31 g/ha: 31 g ai/ha; for pest or weed control at 62 g/ha: 62 g ai/ha; for pest or weed control at 125 g/ha: 125 g ai/ha
In short: as §1

[5] = tested on: green foxtail (Setaria viridis); conditions: scale 0 to 100, read-out: Plant response rating, Foxtail, Green; for pest or weed control at 16 g/ha: 16 g ai/ha; for pest or weed control at 31 g/ha: 31 g ai/ha; for pest or weed control at 62 g/ha: 62 g ai/ha; for pest or weed control at 125 g/ha: 125 g ai/ha
In short: as §1

[6] = tested on: lambsquarters (Chenopodium album); conditions: scale 0 to 100, read-out: Plant response rating, Lambsquarters; for pest or weed control at 16 g/ha: 16 g ai/ha; for pest or weed control at 31 g/ha: 31 g ai/ha; for pest or weed control at 62 g/ha: 62 g ai/ha; for pest or weed control at 125 g/ha: 125 g ai/ha
In short: as §1

[7] = tested on: oilseed rape (Brassica napus); conditions: scale 0 to 100, read-out: Plant response rating, Oilseed Rape; for plant injury at 16 g/ha: 16 g ai/ha; for plant injury at 31 g/ha: 31 g ai/ha; for plant injury at 62 g/ha: 62 g ai/ha; for plant injury at 125 g/ha: 125 g ai/ha
In short: as §1

[8] = tested on: spring wheat (Triticum aestivum); conditions: scale 0 to 100, read-out: Plant response rating, Wheat, Spring; for plant injury at 16 g/ha: 16 g ai/ha; for plant injury at 62 g/ha: 62 g ai/ha; for plant injury at 125 g/ha: 125 g ai/ha
In short: as §1

wild oat (Avena fatua) = conditions: scale 0 to 100, read-out: Plant response rating, Oat, Wild; for pest or weed control at 16 g/ha: 16 g ai/ha; for pest or weed control at 31 g/ha: 31 g ai/ha; for pest or weed control at 62 g/ha: 62 g ai/ha; for pest or weed control at 125 g/ha: 125 g ai/ha
In short: as §1

[9] = tested on: wild radish (Raphanus raphanistrum); conditions: scale 0 to 100, read-out: Plant response rating, Radish, Wild; for pest or weed control at 16 g/ha: 16 g ai/ha; for pest or weed control at 31 g/ha: 31 g ai/ha; for pest or weed control at 62 g/ha: 62 g ai/ha; for pest or weed control at 125 g/ha: 125 g ai/ha
In short: as §1

[10] = tested on: winter wheat (Triticum aestivum); conditions: scale 0 to 100, read-out: Plant response rating, Wheat, Winter; for plant injury at 16 g/ha: 16 g ai/ha; for plant injury at 62 g/ha: 62 g ai/ha; for plant injury at 125 g/ha: 125 g ai/ha
In short: as §1

[11] = post-emergence, 31 g ai/ha, Postemergence

Q: How did the pest or weed control at 16 g/ha ([1]; post-emergence, Postemergence) turn out when Fc1cccc(Oc2ncc(Cl)cn2)c1-c1cc(C(F)(F)F)on1 [Compound 168, 5-chloro-2-[2-[5-(trifluoromethyl)-3-isoxazolyl]-3-fluorophenoxy]pyrimidine] was run?
A: 10%

Q: And the pest or weed control at 31 g/ha ([1]; post-emergence, Postemergence)?
A: 5%

Q: And the pest or weed control at 62 g/ha ([1]; post-emergence, Postemergence)?
A: 10%

Q: And the pest or weed control at 125 g/ha ([1]; post-emergence, Postemergence)?
A: 15%

Q: What about the pest or weed control at 16 g/ha ([1]; pre-emergence, Preemergence) of the same compound?
A: 0%

Q: What about the pest or weed control at 31 g/ha ([1]; pre-emergence, Preemergence) of the same compound?
A: 10%

Q: What about the pest or weed control at 62 g/ha ([1]; pre-emergence, Preemergence) of the same compound?
A: 80%

Q: What about the pest or weed control at 125 g/ha ([1]; pre-emergence, Preemergence) of the same compound?
A: 100%

Q: And the pest or weed control at 16 g/ha ([2]; post-emergence, Postemergence)?
A: 20%

Q: And the pest or weed control at 31 g/ha ([2]; post-emergence, Postemergence)?
A: 55%

Q: And the pest or weed control at 62 g/ha ([2]; post-emergence, Postemergence)?
A: 75%

Q: What about the pest or weed control at 125 g/ha ([2]; post-emergence, Postemergence) of the same compound?
A: 80%

Q: And the pest or weed control at 16 g/ha ([2]; pre-emergence, Preemergence)?
A: 10%

Q: And the pest or weed control at 31 g/ha ([2]; pre-emergence, Preemergence)?
A: 50%

Q: And the pest or weed control at 62 g/ha ([2]; pre-emergence, Preemergence)?
A: 80%

Q: What about the pest or weed control at 125 g/ha ([2]; pre-emergence, Preemergence) of the same compound?
A: 100%

Q: And the pest or weed control at 16 g/ha ([3]; post-emergence, Postemergence)?
A: 75%

Q: What about the pest or weed control at 31 g/ha ([3]; post-emergence, Postemergence) of the same compound?
A: 75%

Q: And the pest or weed control at 62 g/ha ([3]; post-emergence, Postemergence)?
A: 90%

Q: And the pest or weed control at 125 g/ha ([3]; post-emergence, Postemergence)?
A: 95%

Q: And the pest or weed control at 16 g/ha ([3]; pre-emergence, Preemergence)?
A: 85%

Q: And the pest or weed control at 31 g/ha ([3]; pre-emergence, Preemergence)?
A: 100%

Q: And the pest or weed control at 62 g/ha ([3]; pre-emergence, Preemergence)?
A: 100%

Q: And the pest or weed control at 125 g/ha ([3]; pre-emergence, Preemergence)?
A: 100%

Q: And the pest or weed control at 16 g/ha ([4]; post-emergence, Postemergence)?
A: 75%

Q: What about the pest or weed control at 31 g/ha ([4]; post-emergence, Postemergence) of the same compound?
A: 75%

Q: And the pest or weed control at 62 g/ha ([4]; post-emergence, Postemergence)?
A: 80%

Q: What about the pest or weed control at 125 g/ha ([4]; post-emergence, Postemergence) of the same compound?
A: 85%

Q: And the pest or weed control at 16 g/ha ([4]; pre-emergence, Preemergence)?
A: 60%

Q: And the pest or weed control at 31 g/ha ([4]; pre-emergence, Preemergence)?
A: 60%

Q: And the pest or weed control at 62 g/ha ([4]; pre-emergence, Preemergence)?
A: 100%

Q: And the pest or weed control at 125 g/ha ([4]; pre-emergence, Preemergence)?
A: 100%

Q: And the pest or weed control at 16 g/ha ([5]; post-emergence, Postemergence)?
A: 20%

Q: What about the pest or weed control at 31 g/ha ([5]; post-emergence, Postemergence) of the same compound?
A: 60%

Q: And the pest or weed control at 62 g/ha ([5]; post-emergence, Postemergence)?
A: 60%

Q: What about the pest or weed control at 125 g/ha ([5]; post-emergence, Postemergence) of the same compound?
A: 75%

Q: And the pest or weed control at 16 g/ha ([5]; pre-emergence, Preemergence)?
A: 10%

Q: And the pest or weed control at 31 g/ha ([5]; pre-emergence, Preemergence)?
A: 100%

Q: What about the pest or weed control at 62 g/ha ([5]; pre-emergence, Preemergence) of the same compound?
A: 100%

Q: What about the pest or weed control at 125 g/ha ([5]; pre-emergence, Preemergence) of the same compound?
A: 100%

Q: And the pest or weed control at 16 g/ha ([6]; post-emergence, Postemergence)?
A: 75%

Q: And the pest or weed control at 31 g/ha ([6]; post-emergence, Postemergence)?
A: 85%

Q: What about the pest or weed control at 62 g/ha ([6]; post-emergence, Postemergence) of the same compound?
A: 90%

Q: What about the pest or weed control at 125 g/ha ([6]; post-emergence, Postemergence) of the same compound?
A: 95%

Q: And the pest or weed control at 16 g/ha ([6]; pre-emergence, Preemergence)?
A: 45%

Q: What about the pest or weed control at 31 g/ha ([6]; pre-emergence, Preemergence) of the same compound?
A: 100%

Q: And the pest or weed control at 62 g/ha ([6]; pre-emergence, Preemergence)?
A: 100%

Q: And the pest or weed control at 125 g/ha ([6]; pre-emergence, Preemergence)?
A: 100%

Q: And the plant injury at 16 g/ha ([7]; post-emergence, Postemergence)?
A: 70%

Q: And the plant injury at 31 g/ha ([7]; post-emergence, Postemergence)?
A: 85%

Q: What about the plant injury at 62 g/ha ([7]; post-emergence, Postemergence) of the same compound?
A: 95%

Q: And the plant injury at 125 g/ha ([7]; post-emergence, Postemergence)?
A: 100%

Q: What about the plant injury at 16 g/ha ([7]; pre-emergence, Preemergence) of the same compound?
A: 10%

Q: What about the plant injury at 31 g/ha ([7]; pre-emergence, Preemergence) of the same compound?
A: 40%

Q: What about the plant injury at 62 g/ha ([7]; pre-emergence, Preemergence) of the same compound?
A: 65%

Q: And the plant injury at 125 g/ha ([7]; pre-emergence, Preemergence)?
A: 100%

Q: And the plant injury at 16 g/ha ([8]; post-emergence, Postemergence)?
A: 10%

Q: What about the plant injury at 31 g/ha [8, 11] of the same compound?
A: 20%

Q: And the plant injury at 62 g/ha ([8]; post-emergence, Postemergence)?
A: 25%

Q: What about the plant injury at 125 g/ha ([8]; post-emergence, Postemergence) of the same compound?
A: 40%

Q: What about the plant injury at 16 g/ha ([8]; pre-emergence, Preemergence) of the same compound?
A: 15%

Q: And the plant injury at 62 g/ha ([8]; pre-emergence, Preemergence)?
A: 20%

Q: What about the plant injury at 125 g/ha ([8]; pre-emergence, Preemergence) of the same compound?
A: 30%

Q: And the pest or weed control at 16 g/ha (wild oat (Avena fatua); post-emergence, Postemergence)?
A: 5%

Q: What about the pest or weed control at 31 g/ha (wild oat (Avena fatua); post-emergence, Postemergence) of the same compound?
A: 10%

Q: What about the pest or weed control at 62 g/ha (wild oat (Avena fatua); post-emergence, Postemergence) of the same compound?
A: 40%

Q: And the pest or weed control at 125 g/ha (wild oat (Avena fatua); post-emergence, Postemergence)?
A: 65%

Q: And the pest or weed control at 16 g/ha (wild oat (Avena fatua); pre-emergence, Preemergence)?
A: 10%

Q: What about the pest or weed control at 31 g/ha (wild oat (Avena fatua); pre-emergence, Preemergence) of the same compound?
A: 10%

Q: What about the pest or weed control at 62 g/ha (wild oat (Avena fatua); pre-emergence, Preemergence) of the same compound?
A: 35%

Q: What about the pest or weed control at 125 g/ha (wild oat (Avena fatua); pre-emergence, Preemergence) of the same compound?
A: 50%

Q: And the pest or weed control at 16 g/ha ([9]; post-emergence, Postemergence)?
A: 70%

Q: And the pest or weed control at 31 g/ha ([9]; post-emergence, Postemergence)?
A: 75%

Q: What about the pest or weed control at 62 g/ha ([9]; post-emergence, Postemergence) of the same compound?
A: 80%

Q: And the pest or weed control at 125 g/ha ([9]; post-emergence, Postemergence)?
A: 85%

Q: And the pest or weed control at 16 g/ha ([9]; pre-emergence, Preemergence)?
A: 0%

Q: What about the pest or weed control at 31 g/ha ([9]; pre-emergence, Preemergence) of the same compound?
A: 45%

Q: And the pest or weed control at 62 g/ha ([9]; pre-emergence, Preemergence)?
A: 100%

Q: And the pest or weed control at 125 g/ha ([9]; pre-emergence, Preemergence)?
A: 100%

Q: And the plant injury at 16 g/ha ([10]; post-emergence, Postemergence)?
A: 5%

Q: And the plant injury at 31 g/ha [10, 11]?
A: 10%

Q: And the plant injury at 62 g/ha ([10]; post-emergence, Postemergence)?
A: 25%

Q: And the plant injury at 125 g/ha ([10]; post-emergence, Postemergence)?
A: 35%

Q: And the plant injury at 16 g/ha ([10]; pre-emergence, Preemergence)?
A: 5%

Q: What about the plant injury at 62 g/ha ([10]; pre-emergence, Preemergence) of the same compound?
A: 10%

Q: And the plant injury at 125 g/ha ([10]; pre-emergence, Preemergence)?
A: 30%
